The record followed here is patent US20070066801A1 (priority 2003, published 2007).

This test has as its system mutant F. novicida knock-outs. The format is binding, Francisella novicida.

As for TSITPWFFLSRP [phage 4-4-2], the “expected binding of phage to knock-out mutants inactivated for the cell surface marker” value is recorded as “absence of specific binding”.
